Measurements from patent US11136321B2, “Tricyclic compounds” (ALIGOS THERAPEUTICS, INC., priority 2019, dated 2021).

Tested on: HBV
Assay: HBV-DNA antiviral assay using HepG2.117 cells
Format: cell-based, genotype D HBV
Conditions: Hepatitis B virus, 72 h, intracellular HBV DNA by qPCR, 3 days incubation
How it was run: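 HepG2.117 cells (genotype D HBV, Tet-off) seeded without doxycycline and treated for 3 days at 9 concentrations (4-fold dilutions) in 2% DMSO. Intracellular HBV DNA measured by qPCR against a standard curve, with viability from ATPlite run in parallel. EC50, EC90 and CC50 fitted relative to DMSO controls.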

SMILES	EC50
O=C(NC1CC1)c1ccc(-n2c(=O)c3c(n4ncc(Cc5ccccc5)c24)CN(C(=O)c2ccc(Br)c(Cl)c2)CC3)cc1 [Compound 68, 4-[5-benzyl-12-(4-bromo-3-chloro-benzoyl)-8-oxo-2,3,7,12-tetrazatricyclo [7.4.0.0 2,6]trideca-1(9),3,5-trien-7-yl]-N-cyclopropyl-benzamide]	> 5000 nM
CNC(=O)c1ccc(-n2c(=O)c3c(n4ncc(NCc5ccccc5F)c24)CN(C(=O)c2ccc(Br)c(C#N)c2)CC3)cc1 [Compound 69, 4-[12-(4-bromo-3-cyano-benzoyl)-5-[(2-fluorophenyl)methylamino]-8-oxo-2,3,7,12-tetrazatricyclo [7.4.0.0 2,6]trideca-1(9),3,5-trien-7-yl]-N-methyl-benzamide]	100 to 500 nM
CNC(=O)c1ccc(-n2c(=O)c3c(n4ncc(NCc5ccc(F)cc5)c24)CN(C(=O)c2ccc(Br)c(C#N)c2)CC3)cc1 [Compound 70, 4-[12-(4-bromo-3-cyano-benzoyl)-5-[(4-fluorophenyl)methylamino]-8-oxo-2,3,7,12-tetrazatricyclo [7.4.0.0 2,6]trideca-1(9),3,5-trien-7-yl]-N-methyl-benzamide]	100 to 500 nM
N#Cc1cc(C(=O)N2CCc3c(n4ncc(Cc5ccccc5)c4n(-c4ccc(-c5ncc[nH]5)cc4)c3=O)C2)ccc1Br [Compound 73, 5-[5-benzyl-7-[4-(1H-imidazol-2-yl)phenyl]-8-oxo-2,3,7,12-tetrazatricyclo [7.4.0.0 2,6]trideca-1(9),3,5-triene-12-carbonyl]-2-bromo-benzonitrile]	500 to 5000 nM
NC(=O)c1ccc(-n2c(=O)c3c(n4ncc(Cc5ccccc5)c24)CN(C(=O)c2ccc(Br)c(Cl)c2)CC3)cc1 [Compound 75, 4-[5-benzyl-12-(4-bromo-3-chloro-benzoyl)-8-oxo-2,3,7,12-tetrazatricyclo [7.4.0.0 2,6]trideca-1(9),3,5-trien-7-yl] benzamide]	500 to 5000 nM
N#Cc1cc(C(=O)N2CCc3c(n4ncc(Cc5ccccc5)c4n(-c4ccc(C(=O)NC5CC5)cc4)c3=O)C2)ccc1Br [Compound 76, 4-[5-benzyl-12-(4-bromo-3-cyano-benzoyl)-8-oxo-2,3,7,12-tetrazatricyclo [7.4.0.0 2,6]trideca-1(9),3,5-trien-7-yl]-N-cyclopropyl-benzamide]	> 5000 nM
O=C(c1ccc(Br)c(Cl)c1)N1CCc2c(n3ncc(Cc4ccccc4)c3n(-c3ccc(-n4cccn4)cc3)c2=O)C1 [Compound 77, 5-benzyl-12-(4-bromo-3-chloro-benzoyl)-7-(4-pyrazol-1-ylphenyl)-2,3,7,12-tetrazatricyclo [7.4.0.0 2,6] trideca-1(9),3,5-trien-8-one]	> 5000 nM
N#Cc1cc(C(=O)N2CCc3c(n4ncc(Cc5ccccc5)c4n(-c4ccc(-n5cccn5)cc4)c3=O)C2)ccc1Br [Compound 78, 5-[5-benzyl-8-oxo-7-(4-pyrazol-1-ylphenyl)-2,3,7,12-tetrazatricyclo [7.4.0.0 2,6]trideca-1(9),3,5-triene-12-carbonyl]-2-bromo-benzonitrile]	> 5000 nM
N#Cc1cc(C(=O)N2CCc3c(n4ncc(Cc5ccccc5)c4n(-c4ccc(C(N)=O)cc4)c3=O)C2)ccc1Br [Compound 82, 4-[5-benzyl-12-(4-bromo-3-cyano-benzoyl)-8-oxo-2,3,7,12-tetrazatricyclo [7.4.0.0 2,6]trideca-1(9),3,5-trien-7-yl] benzamide]	> 5000 nM
CNC(=O)c1ccc(-n2c(=O)c3c(n4ncc(NC(C)c5ccccc5)c24)CN(C(=O)c2ccc(Br)c(C#N)c2)CC3)cc1 (centres unmarked) [Compound 83, 4-[12-(4-bromo-3-cyano-benzoyl)-8-oxo-5-(1-phenylethylamino)-2,3,7,12-tetrazatricyclo [7.4.0.0 2,6]trideca-1(9),3,5-trien-7-yl]-N-methyl-benzamide]	100 to 500 nM
CNC(=O)c1ccc(-n2c(=O)c3c(n4ncc(Cc5ccc(C#N)cc5F)c24)CN(C(=O)c2ccc(Br)c(C#N)c2)CC3)cc1 [Compound 84, 4-[12-(4-bromo-3-cyano-benzoyl)-5-[(4-cyano-2-fluoro-phenyl)methyl]-8-oxo-2,3,7,12-tetrazatricyclo [7.4.0.0 2,6]trideca-1(9),3,5-trien-7-yl]-N-methyl-benzamide]	500 to 5000 nM
CNC(=O)c1ccc(-n2c(=O)c3c(n4ncc(Cc5ccc(C#N)cc5F)c24)CN(C(=O)c2ccc(Br)c(Cl)c2)CC3)cc1 [Compound 85, 4-[12-(4-bromo-3-chloro-benzoyl)-5-[(4-cyano-2-fluoro-phenyl)methyl]-8-oxo-2,3,7,12-tetrazatricyclo [7.4.0.0 2,6]trideca-1(9),3,5-trien-7-yl]-N-methyl-benzamide]	≤ 100 nM
CNC(=O)c1ccc(-n2c(=O)c3c(n4ncc(Cc5ccc(OC)cc5F)c24)CN(C(=O)c2ccc(Br)c(C#N)c2)CC3)cc1 [Compound 86, 4-[12-(4-bromo-3-cyano-benzoyl)-5-[(2-fluoro-4-methoxy-phenyl)methyl]-8-oxo-2,3,7,12-tetrazatricyclo [7.4.0.0 2,6]trideca-1(9),3,5-trien-7-yl]-N-methyl-benzamide]	100 to 500 nM
CNC(=O)c1ccc(-n2c(=O)c3c(n4ncc(Cc5ccc(OC)cc5F)c24)CN(C(=O)c2ccc(Br)c(Cl)c2)CC3)cc1 [Compound 87, 4-[12-(4-bromo-3-chloro-benzoyl)-5-[(2-fluoro-4-methoxy-phenyl)methyl]-8-oxo-2,3,7,12-tetrazatricyclo [7.4.0.0 2,6]trideca-1(9),3,5-trien-7-yl]-N-methyl-benzamide]	≤ 100 nM
CNC(=O)c1ccc(-n2c(=O)c3c(n4ncc(Cc5ccc(OC)cc5)c24)CN(C(=O)c2ccc(Br)c(Cl)c2)CC3)cc1 [Compound 88, 4-[12-(4-bromo-3-chloro-benzoyl)-5-[(4-methoxyphenyl)methyl]-8-oxo-2,3,7,12-tetrazatricyclo [7.4.0.0 2,6]trideca-1(9),3,5-trien-7-yl]-N-methyl-benzamide]	≤ 100 nM
CNC(=O)c1ccc(-n2c(=O)c3c(n4ncc(Cc5ccc(OC)cc5)c24)CN(C(=O)c2ccc(Br)c(C#N)c2)CC3)cc1 [Compound 89, 4-[12-(4-bromo-3-cyano-benzoyl)-5-[(4-methoxyphenyl)methyl]-8-oxo-2,3,7,12-tetrazatricyclo [7.4.0.0 2,6]trideca-1(9),3,5-trien-7-yl]-N-methyl-benzamide]	≤ 100 nM
O=C(c1ccc(Br)c(Cl)c1)N1CCc2c(n3ncc(Cc4ccccc4)c3n(-c3ccc(-c4ncc[nH]4)cc3)c2=O)C1 [Compound 90, 5-benzyl-12-(4-bromo-3-chloro-benzoyl)-7-[4-(1H-imidazol-2-yl)phenyl]-2,3,7,12-tetrazatricyclo [7.4.0.0 2,6] trideca-1(9),3,5-trien-8-one]	500 to 5000 nM
